Test results as given in patent publication US8227501B2, “1,6-dihydro-2H-3-oxa-6-aza-as-indacene compounds” (Ferrer Internacional, S.A., priority 2008, dated 2012).

Biological target: T1, recombinant human-MT1 receptor (Homo sapiens, UniProt P48039)
T1 construct: expressed in transfected cells; host or cells: unnamed cell line stably overexpressing human MT1, co-expressing mitochondrial apoaequorin and Gα16
Test: In vitro MT1 screening, agonist activity (AequoScreen aequorin luminescence)
Format: cell-based
Settings: percentage of activity relative to the reference agonist at the EC100 concentration; for activation at 0.001 µM: read-out: Agonism percentages of MT1, 1 nM; for activation at 0.1 µM: read-out: Agonism percentages of MT1, 100 nM
Source text: To proceed with compound screening over MT1 receptor, a cell line characterised by a stable overexpression of recombinant human-MT1 receptor was used. This line co-expresses mitochondrial apoaequorin and subunit Gα16.
Subunit Gα16 belongs to […], in which intracelular signal transduction is produced via phospholipase (PLC). Activation of PLC produces an increment of inositol-triphosphate levels and intracellular calcium levels. This increment in calcium levels is, therefore, independent and full compatible with the signal transduction of MT1 receptor.
After binding to calcium, aequorin carries out the oxidation of colenterazine to colenteramide, a luminescent reaction.
Assay protocol for agonist screening consists in an overnight incubation of cells and colenterazine, being performed by an AequoScreen™ system instrument, PerkinElmer, USA. After that this mixture was injected over a plate that contains the solution of the compounds to screen and luminescence was immediately read. Only in case of antagonism screening, after 15-30 min of the first injection the reference agonist was added in the same well, and then luminescence was measured.
Agonist activity was calculated as percentage of activity relative to the reference agonist at the EC100 concentration. Activity of antagonists was expressed as the inhibition percentage over the activity of reference agonist at its EC80, concentration.

T1 sequence (P48039 whole entry): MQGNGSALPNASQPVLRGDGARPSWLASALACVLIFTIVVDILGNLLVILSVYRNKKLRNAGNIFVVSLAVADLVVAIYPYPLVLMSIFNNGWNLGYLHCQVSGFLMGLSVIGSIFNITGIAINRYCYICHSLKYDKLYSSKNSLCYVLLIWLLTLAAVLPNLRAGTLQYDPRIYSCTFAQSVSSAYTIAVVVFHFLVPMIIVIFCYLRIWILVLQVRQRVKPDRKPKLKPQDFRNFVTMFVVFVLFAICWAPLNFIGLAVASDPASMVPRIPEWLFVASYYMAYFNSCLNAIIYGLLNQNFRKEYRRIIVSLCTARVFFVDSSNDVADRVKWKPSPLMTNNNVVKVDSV

| activation at 0.001 µM (1 nM compound) | activation at 0.1 µM (100 nM compound) | Agonism percentages of MT1, 1 nM (1 nM compound) | Agonism percentages of MT1, 100 nM (100 nM compound) | SMILES |
| --- | --- | --- | --- | --- |
| 17.4% | 77.3% | – | – | COC(=O)NCCc1c[nH]c2cc(F)c3c(c12)CC(C)O3 (centres unmarked) [Compound 29, [2-(4-Fluoro-2-methyl-1,6-dihydro-2H-3-oxa-6-aza-as-indacen-8-yl)-ethyl]-carbamic acid methyl ester] |
| 37.7% | 92.9% | – | – | CC(=O)NCCc1c[nH]c2cc(F)c3c(c12)CCO3 [Compound 13, N-[2-(4-Fluoro-1,6-dihydro-2H-3-oxa-6-aza-as-indacen-8-yl)-ethyl]-acetamide] |
| 50.5% | 96.8% | – | – | CC(=O)NCCc1c[nH]c2cc(F)c3c(c12)CC(C)O3 (centres unmarked) [Compound 22, N-[2-(4-Fluoro-2-methyl-1,6-dihydro-2H-3-oxa-6-aza-as-indacen-8-yl)-ethyl]-acetamide] |
| 59.8% | 105% | – | – | O=C(NCCc1c[nH]c2cc(F)c3c(c12)CCO3)C(F)(F)F [Compound 18, 2,2,2-Trifluoro-N-[2-(4-fluoro-1,6-dihydro-2H-3-oxa-6-aza-as-indacen-8-yl)-ethyl]-acetamide] |
| 43.2% | 92.6% | – | – | CC(=O)NCC(C)c1c[nH]c2cc(F)c3c(c12)CC(C)O3 (centres unmarked) [Compound 21, N-[2-(4-Fluoro-2-methyl-1,6-dihydro-2H-3-oxa-6-aza-as-indacen-8-yl)-propyl]-acetamide] |
| 36.9% | 101% | – | – | CC1Cc2c(c(F)cc3[nH]cc(C(C)CNC(=O)C(F)(F)F)c23)O1 (centres unmarked) [Compound 38, 2,2,2-Trifluoro-N-[2-(4-fluoro-2-methyl-1,6-dihydro-2H-3-oxa-6-aza-as-indacen-8-yl)-propyl]-acetamide] |
| 55.1% | 102% | – | – | CCC(=O)NCCc1c[nH]c2cc(F)c3c(c12)CCO3 [Compound 14, N-[2-(4-Fluoro-1,6-dihydro-2H-3-oxa-6-aza-as-indacen-8-yl)-ethyl]-propionamide] |
| 18.4% | 95.8% | – | – | CC1Cc2c(c(F)cc3[nH]cc(C(C)CNC(=O)C(C)C)c23)O1 (centres unmarked) [Compound 34, N-[2-(4-Fluoro-2-methyl-1,6-dihydro-2H-3-oxa-6-aza-as-indacen-8-yl)-propyl]-isobutyramide] |
| 19.7% | 87.8% | – | – | CCNC(=O)NCC(C)c1c[nH]c2cc(F)c3c(c12)CC(C)O3 (centres unmarked) [Compound 42, 1-Ethyl-3-[2-(4-fluoro-2-methyl-1,6-dihydro-2H-3-oxa-6-aza-as-indacen-8-yl)-propyl]-urea] |
| 27.8% | 96.8% | – | – | CCCC(=O)NCC(C)c1c[nH]c2cc(F)c3c(c12)CC(C)O3 (centres unmarked) [Compound 19, N-[2-(4-Fluoro-2-methyl-1,6-dihydro-2H-3-oxa-6-aza-as-indacen-8-yl)-propyl]-butyramide] |
| 36.1% | 97.2% | – | – | CC1Cc2c(c(F)cc3[nH]cc(CCNC(=O)C(F)(F)F)c23)O1 (centres unmarked) [Compound 28, 2,2,2-Trifluoro-N-[2-(4-fluoro-2-methyl-1,6-dihydro-2H-3-oxa-6-aza-as-indacen-8-yl)-ethyl]-acetamide] |
| 30.6% | 92.8% | – | – | CC1Cc2c(c(F)cc3[nH]cc(C(C)CNC(=O)C(C)F)c23)O1 (centres unmarked) [Compound 43, 2-Fluoro-N-[2-(4-fluoro-2-methyl-1,6-dihydro-2H-3-oxa-6-aza-as-indacen-8-yl)-propyl]-propionamide] |
| 31.9% | 98% | – | – | CCCCC(=O)NCCc1c[nH]c2cc(F)c3c(c12)CC(C)O3 (centres unmarked) [Compound 25, Pentanoic acid [2-(4-fluoro-2-methyl-1,6-dihydro-2H-3-oxa-6-aza-as-indacen-8-yl)-ethyl]-amide] |
| 6.6% | 52.8% | – | – | CC1Cc2c(c(F)cc3[nH]cc(C(C)CNC(=O)C(C)(C)C)c23)O1 (centres unmarked) [Compound 37, N-[2-(4-Fluoro-2-methyl-1,6-dihydro-2H-3-oxa-6-aza-as-indacen-8-yl)-propyl]-2,2-dimethyl-propionamide] |
| 25.7% | 84.8% | – | – | CC1Cc2c(c(F)cc3[nH]cc(CCNC(=O)C(C)C)c23)O1 (centres unmarked) [Compound 26, N-[2-(4-Fluoro-2-methyl-1,6-dihydro-2H-3-oxa-6-aza-as-indacen-8-yl)-ethyl]-isobutyramide] |
| 42.1% | 99.8% | – | – | CCCC(=O)NCCc1c[nH]c2cc(F)c3c(c12)CC(C)O3 (centres unmarked) [Compound 24, N-[2-(4-Fluoro-2-methyl-1,6-dihydro-2H-3-oxa-6-aza-as-indacen-8-yl)-ethyl]-butyramide] |
| 39.1% | 99.7% | – | – | CCC(=O)NCCc1c[nH]c2cc(F)c3c(c12)CC(C)O3 (centres unmarked) [Compound 23, N-[2-(4-Fluoro-2-methyl-1,6-dihydro-2H-3-oxa-6-aza-as-indacen-8-yl)-ethyl]-propionamide] |
| 33.8% | 91.1% | – | – | CC1Cc2c(c(F)cc3[nH]cc(CCNC(=O)C4CC4)c23)O1 (centres unmarked) [Compound 27, Cyclopropanecarboxylic acid [2-(4-fluoro-2-methyl-1,6-dihydro-2H-3-oxa-6-aza-as-indacen-8-yl)-ethyl]-amide] |
| 43.8% | 93.2% | – | – | O=C(NCCc1c[nH]c2cc(F)c3c(c12)CCO3)C1CC1 [Compound 17, Cyclopropanecarboxylic acid [2-(4-fluoro-1,6-dihydro-2H-3-oxa-6-aza-as-indacen-8-yl)-ethyl]-amide] |
| – | – | 43.0% | 108.2% | CCCC(=O)NCCc1c[nH]c2cc(F)c3c(c12)CCO3 [Compound 15, N-[2-(4-Fluoro-1,6-dihydro-2H-3-oxa-6-aza-as-indacen-8-yl)-ethyl]-butiramide] |
| 13.1% | 78.9% | – | – | CCOC(=O)NCC(C)c1c[nH]c2cc(F)c3c(c12)CC(C)O3 (centres unmarked) [Compound 41, [2-(4-Fluoro-2-methyl-1,6-dihydro-2H-3-oxa-6-aza-as-indacen-8-yl)-propyl]-carbamic acid ethyl ester] |
| 38.6% | 93.1% | – | – | CC1Cc2c(c(F)cc3[nH]cc(CCNC(=O)C(C)F)c23)O1 (centres unmarked) [Compound 32, 2-Fluoro-N-[2-(4-fluoro-2-methyl-1,6-dihydro-2H-3-oxa-6-aza-as-indacen-8-yl)-ethyl]-propionamide] |
| 30.5% | 94% | – | – | CC1Cc2c(c(F)cc3[nH]cc(C(C)CNC(=O)C4CC4)c23)O1 (centres unmarked) [Compound 35, Cyclopropanecarboxylic acid [2-(4-fluoro-2-methyl-1,6-dihydro-2H-3-oxa-6-aza-as-indacen-8-yl)-propyl]-amide] |
| 30.2% | 94.3% | – | – | CCC(=O)NCC(C)c1c[nH]c2cc(F)c3c(c12)CC(C)O3 (centres unmarked) [Compound 20, N-[2-(4-Fluoro-2-methyl-1,6-dihydro-2H-3-oxa-6-aza-as-indacen-8-yl)-propyl]-propionamide] |
| 24.6% | 91.4% | – | – | CCCCC(=O)NCC(C)c1c[nH]c2cc(F)c3c(c12)CC(C)O3 (centres unmarked) [Compound 39, Pentanoic acid [2-(4-fluoro-2-methyl-1,6-dihydro-2H-3-oxa-6-aza-as-indacen-8-yl)-propyl]-amide] |
